# Measurements from patent US5091299A, “An enzyme electrode for use in organic solvents” (priority 1987, dated 1992).
# Values joined by “and” are separate entries in the source; they are usually repeats but may differ in a detail not shown here. Equal entries are not always repeated.
# Assays:
# [1] = system: Polyphenol oxidase (tyrosinase); experiment: Electrode specificity, response of the enzyme electrode to ten phenols; format: biochemical; details: phenol 100 μM, single electrode, chloroform
# [2] = system: Polyphenol oxidase (tyrosinase); experiment: Storage stability of the enzyme electrode, response to p-cresol; details: p-cresol 200 μM
# [3] = system: Polyphenol oxidase (tyrosinase); experiment: Calibration of the polyphenol oxidase enzyme electrode with p-cresol in chloroform; details: after addition of p-cresol, -275 mV vs SCE
# [4] = system: Polyphenol oxidase (tyrosinase); experiment: Operational stability of the enzyme electrode, sixteen consecutive p-cresol assays; details: p-cresol 100 μM
# [5] = room temp. (20° C.), stored dry
# [6] = room temp. (20° C.), stored in CHCl3
structure (smiles),measurement,setting,value
Cc1cccc(O)c1 [m-cresol],Electrode response,[1],4.7 μA
Cc1ccc(O)c(O)c1 [4-methylcatechol],Electrode response,[1],6.7 μA
Oc1ccccc1O [catechol],Electrode response,[1],8.6 μA
Cc1ccccc1O [o-cresol],Electrode response,[1],0.0 μA
same,whether the electrode responded,[1],responded to all the phenols tested except
Nc1ccc(O)cc1 [p-aminophenol],Electrode response,[1],2.4 μA
Cc1ccc(O)cc1 [p-cresol],Electrode response,[1],5.6 μA
same,Initial response,"[2]; 5° C., stored dry",4.3 μA and 3.7 μA
same,Response after 3 days,"[2]; 5° C., stored dry",4.4 μA and 4.5 μA
same,Response after 48 days,"[2]; 5° C., stored dry",4.7 μA and 3.5 μA
same,Initial response,"[2]; 5° C., stored in CHCl3",4.8 μA and 3.8 μA
same,Response after 3 days,"[2]; 5° C., stored in CHCl3",8.1 μA and 9.5 μA
same,Response after 48 days,"[2]; 5° C., stored in CHCl3",10.0 μA and 7.6 μA
same,decrease in response,[2]; electrodes stored at 5° C.,no significant decrease
same,average loss of activity (of the response),"[2]; electrodes stored at room temperature, after three days",30%
same,Initial response,[2]; [5],5.2 μA and 4.8 μA
same,Response after 3 days,[2]; [5],6.8 μA and 5.4 μA
same,Response after 48 days,[2]; [5],3.6 μA and 2.8 μA
same,Initial response,[2]; [6],4.0 μA and 4.2 μA
same,Response after 3 days,[2]; [6],7.0 μA and 7.2 μA
same,Response after 48 days,[2]; [6],5.5 μA and 6.5 μA
same,time for the current increase to reach a steady value,[3],3 to 5 min
same,Electrode response after the first three assays,[4],4.0 μA
same,"Electrode response, first assay",[4]; start of series of sixteen assays,1.9 μA
same,Electrode response over the next eleven assays,[4]; started to fall after assay fourteen,remained stable
O=Cc1ccc(O)cc1 [p-hydroxy-benzaldehyde],Electrode response,[1],0.0 μA
same,whether the electrode responded,[1],responded to all the phenols tested except
Oc1ccccc1 [phenol],Electrode response,[1],6.4 μA
Oc1ccc(Cl)cc1 [4-chlorophenol],Electrode response,[1],3.1 μA
O=Cc1cccc(O)c1 [m-hydroxy-benzaldehyde],Electrode response,[1],0.0 μA
same,whether the electrode responded,[1],responded to all the phenols tested except
